Test results: patent US6177424A, “4'-Substituted-4',5'-dihydropsoralens and therapeutical uses thereof” (priority 1999, dated 2001)
Structures can show the parent of a compound that is named as a salt. Where two headings read alike, the source gives them in different places.

Tested on: PAM 212 keratinocytes
Assay: PAM 212 keratinocyte growth inhibition assay (photobiological activity; Toxicity, Table I)
Assay type: cell-based
Details: Mus musculus, PAM212, light or radiation study
From the text: Psoriasis, mycosis fungolides, eczema, scleroderma, cancer, and similar proliferative diseases are often characterized by abnormal cell growth regulation. Application of PUVA therapy to correct proliferative disorders on the skin or internally, especially psoriasis, is one clinical expression of photochemotherapy. The use of the assay described in Example 16 is based on the observation that phototherapeutics are extremely potent inhibitors of growth factor binding in mammalian cells including humans and this inhibition arrests the proliferative disorder. This assay was performed in the cell culture laboratory. For a discussion of cell growth assays see, e.g:, J. Laskin et al., Cancer Research, vol. 39, pp. 383-390 (1979) and E. Yurkow and J. Laskin, Cancer Chemotherapy and Pharmacology, vol. 27, pp. 315-319, (1991). Inhibition of cell growth is dependent on dose ol the phototherapeutic and on the quanta of light in the 320-400 nm wavelength (ultraviolet light A). It is also structure-dependent, that is, there is a direct correlation between those specific phototherapeutics currently used that are clinically active and their ability to inhibit the growth of the cells.
Representative examples of the compounds described and claimed herein were tested in this assay for biological activity and found to be potent inhibitors of cell growth. Inhibition of cell growth was rapid, dependent on concentration, and required light activation. […] A description of this assay follows.
The photobiological activity was assayed using a keratinocyte cell line grown in a monolayer culture. In this assay, PAM 212 keratinocytes were grown in Dulbecco's Modified Eagle's medium supplemented with 10% newborn calf serum in a 5% carbon dioxide incubator. Cells were inoculated into 6-well Falcon plastic culture dishes at 25,000 cells per well. After 24 hours, the medium was charged to fresh growth medium supplemented with increasing concentrations of the test compounds or the control medium. Controls and test concentrations were analyzed in triplicate.
These plates were then incubated in a 37° C. carbon dioxide incubator. […] The incident light on the culture plates was 2.4 mW/cm^2 as measured with an International Light UV radiometer, Model IL 442A. […]
After completion of the irradiation phase, the cell culture medium was drained, the cells refed with fresh growth medium and then re-incubated in the carbon dioxide incubator to allow for cell growth. After 4-5 days of growth the culture plates were removed from the incubator and the cell culture medium was drained. The cells were detached from the plates with trypsin and counted in a Coulter Counter. For control cells or for cells treated with test compounds, cell growth was determined as a percentage of control. […] This value is shown in Table I for a variety of phototherapeutics.

[1] = dark (no UVA light), read-out: Dark-toxicity (IC50 values)
[2] = with UVA (320-400 nm) 1.28 J/square centimeter after 30 minutes incubation, 4-5 days of growth, read-out: Photo-toxicity (IC50 values), concentration at which photoactivated test compound inhibited growth by 50%

Cc1c(Br)c(=O)oc2c(C)c3c(cc12)C(C[n+]1ccccc1)CO3 (stereo not shown) [Example 12, 3-Bromo-4,8-dimethyl-4'-pyridiniummethyl-4',5'-dihydropsoralen Iodide Salt]
IC50 [1]: 70 µM | IC50 [2]: > 30 µM

C=CCOc1c(N)cc2c(C)cc(=O)oc2c1C [Example 3, 6-Amino-4.8-dimethyl-7-allyloxycoumarin]
IC50 [1]: > 100 µM | IC50 [2]: 240 µM

Cc1cc(=O)oc2c(C)c3c(cc12)C(C[n+]1ccccc1)CO3 (stereo not shown) [Example 9, 4,8-Dimethyl-4'-pyridiniummethyl-4',5'-dihydropsoralen Iodide Salt]
IC50 [2]: 0.5 µM

Cc1c(Br)c(=O)oc2c(C)c3c(cc12)C(CI)CO3 (stereo not shown) [Example 6, 3-Bromo-4,8-dimethyl-4'-iodomethyl-4',5'-dihydropsoralen]
IC50 [2]: 0.2 to 0.5 µM

Cc1cc(=O)oc2c(C)c(O)c([N+](=O)[O-])cc12 [Example 1, 6-Nitro-4,8-dimethyl-7-hydroxycoumarin]
IC50 [2]: > 300 µM

Cc1cc(=O)oc2c(C)c3c(cc12)C(CI)CO3 (stereo not shown) [Example 5, 4,8-Dimethyl-4'-iodomethyl-4',5'-dihydropsoralen]
IC50 [1]: > 100 µM | IC50 [2]: 0.1 µM

Cc1cc(=O)oc2c(C)c3c(cc12)C(CC#N)CO3 (stereo not shown) [Example 15, 4,8-Dimethyl-4'-cyanomethyl-4',5'-dihydropsoralen]
IC50 [1]: > 100 µM | IC50 [2]: 3 µM

C=CCOc1c([N+](=O)[O-])cc2c(C)cc(=O)oc2c1C [Example 2, 6-Nitro-4,8-dimethyl-7-allyloxycoumarin]
IC50 [1]: > 100 µM | IC50 [2]: 5 µM
